# Measurements published in patent publication US4055640A, “Compositions and methods for controlling the growth of bacteria, fungi and algae using certain derivatives of N-(2,2-dichlorovinyl)salicylamides” (Nippon Kayaku Co., Ltd., priority 1975, dated 1977).
# Where a name gives a salt, the structure may show the parent alone.
# What was measured:
# [1] = tested on: fungi in the paints or the cutting oil; experiment: Growth of fungi in paints or cutting oil (Example 11); details: oil soluble concentrate, 0.1%
# Description: The above ingredients were mixed. An oil soluble concentrate was obtained. In the form of the oil soluble concentrate, Compound No. 1 was added to paints or the cutting oil in an amount of 0.1%.
# Bacillus subtilis [2] = experiment: Minimum inhibitory concentration, dilution methods (Example 14); format: cell-based; details: Bacillus subtilis
# Excerpt: (§1) Bacteriocidal activity and fungicidal activity of the active compounds of the present invention were examined by potato-dextrose agar dilution method, [2] waxman's liquid medium dilution method or [3] glucose bouillon medium dilution method. The results are shown in Table 4 below as the minimum inhibitory concentration (the minimum concentration of active compound found to produce 100% control of the test bacteria and fungi).
# Staphylococcus aureus [3] = experiment: as above; format: cell-based; details: for minimum inhibitory concentration: (1) potato-dextrose agar dilution method; for MIC: Staphylococcus aureus
# Excerpt: as §1
# Chaetomium globosum = experiment: as above; format: cell-based
# Excerpt: as §1
# Aspergillus niger [4] = experiment: as above; format: cell-based
# Excerpt: as §1
# Pseudomonas fluorescens = experiment: as above; format: cell-based
# Excerpt: as §1
# Bacillus subtilis [5] = experiment: Growth inhibition zone around treated cotton cloth (Example 18); format: cell-based; details: emulsifiable concentrate diluted 1000 times
# Description: (§2) The emulsifiable concentrates which were prepared by Example 10 were diluted with water 1000 times to form an emulsion. A cloth of cotton was soaked into each emulsion for 2 minutes. The clothes were dried at room temperature and cut into a square of which a side was 1 cm long. Each kind of test bacteria and fungi was inoculated, separately on plates of potato-agar and one square cloth was placed on each of such plates. Test bacteria and fungi were cultivated at 28° C for 4 days. The width of the region of growth-inhibition which was formed a circumference of the cloth was examined.
# Staphylococcus aureus [6] = experiment: as above; format: cell-based; details: emulsifiable concentrate diluted 1000 times
# Description: as §2
# Penicillium Citrinum [7] = experiment: as above; format: cell-based; details: emulsifiable concentrate diluted 1000 times
# Description: as §2
# Aspergillus niger [8] = experiment: as above; format: cell-based; details: emulsifiable concentrate diluted 1000 times
# Description: as §2
# [9] = tested on: Aspergillus niger, Penicillium citrinum, Cladosporium harbarum and chaetomium globosum; experiment: Degree of growth inhibition of fungi on treated beach plates (Example 25); format: cell-based; parameters: scale not given here; details: numerical rating, 2 weeks
# Summary of the method: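 Beech plates 5 cm square and 5 mm thick were dipped for 2 min in emulsifiable concentrate diluted 400- and 800-fold in water, then dried 24 h at room temperature. Plates were set on agar, sprayed with fungal spore suspensions and incubated 2 weeks at 28 °C and 95% humidity; growth inhibition was scored on a numerical rating.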
# green algae = experiment: Degree of propagation on slime test boards (Example 27); format: cell-based; details: same method, shaking culture for 2 days
# Summary of the method: (§3)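 Wood slime test boards were soaked in Waxman's liquid medium holding 0.02 part active compound (as 10% water-soluble concentrate) per 100 parts medium. Medium was inoculated with bacteria from a circular water system, fungi or green algae and shake-cultured 2 days at 27°-34° C. Propagation on the boards was scored with symbols.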
# [10] = tested on: bacteria gathered from circular water system; experiment: as above; format: cell-based; details: shaking culture for 2 days
# Summary of the method: as §3
# fungi = experiment: as above; format: cell-based; details: same method, shaking culture for 2 days
# Summary of the method: as §3
# [11] = tested on: Xanthomonas citri (citrus canker); experiment: Exterminating test on citrus canker (Experimental Example 6); format: in vivo; details: Xanthomonas citri, 336 h, read-out: Effect Index, 1,000 ppm, 2 weeks after inoculation
# Summary of the method: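 Four-year-old potted summer orange seedlings sprayed with diluted 80% wettable powder, then needle-inoculated on leaves with Xanthomonas citri and held 24 h moist at 25 °C before greenhouse. Disease attack scored 2 weeks post-inoculation and expressed as an Effect Index.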
# [12] = tested on: Fusarium wilt of cucumber; experiment: Exterminating test on Fusarium wilt of cucumber (Experimental Example 4); format: in vivo, Fusarium oxysporum f, cucumerinum; details: Fusarium, soil, 336 h, 500 ppm, soil drench 100 ml per pot, two weeks; read-out: Percentage of healthy seedlings
# Summary of the method: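 Pots of steam-sterilized soil mixed with 20 g infested soil, sown with 18 cucumber seeds (Tokiwazibai), drenched with 100 ml aqueous suspension of 80% wettable powder. Benlate 50% wettable powder run as control. Disease scored two weeks after planting as percentage of healthy seedlings.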
# Bacillus subtilis [13] = experiment: Region of growth-inhibition around treated cotton cloth (Example 26); format: cell-based; details: emulsifiable concentrate diluted 100 times
# Description: as §2, with “by Example 20 were diluted” for “by Example 10 were diluted”, “with water 100 times to” for “with water 1000 times to”, “was inoculated, separately, on plates” for “was inoculated, separately on plates”, “square cloth placed on” for “square cloth was placed on”, “cloth was measured.” for “cloth was examined.”
# Penicillium Citrinum [14] = experiment: as above; format: cell-based; details: emulsifiable concentrate diluted 100 times
# Description: as §2, with “by Example 20 were diluted” for “by Example 10 were diluted”, “with water 100 times to” for “with water 1000 times to”, “was inoculated, separately, on plates” for “was inoculated, separately on plates”, “square cloth placed on” for “square cloth was placed on”, “cloth was measured.” for “cloth was examined.”
# Staphylococcus oureus = experiment: as above; format: cell-based; details: emulsifiable concentrate diluted 100 times
# Description: as §2, with “by Example 20 were diluted” for “by Example 10 were diluted”, “with water 100 times to” for “with water 1000 times to”, “was inoculated, separately, on plates” for “was inoculated, separately on plates”, “square cloth placed on” for “square cloth was placed on”, “cloth was measured.” for “cloth was examined.”
# Aspergillus niger [15] = experiment: as above; format: cell-based; details: emulsifiable concentrate diluted 100 times
# Description: as §2, with “by Example 20 were diluted” for “by Example 10 were diluted”, “with water 100 times to” for “with water 1000 times to”, “was inoculated, separately, on plates” for “was inoculated, separately on plates”, “square cloth placed on” for “square cloth was placed on”, “cloth was measured.” for “cloth was examined.”
# [16] = (1) potato-dextrose agar dilution method
# [17] = (2) waxman's liquid medium dilution method
# [18] = (3) glucose bouillon medium dilution method
smiles,measurement,setting,value
"O=C(NC=C(Cl)Cl)c1ccccc1O [Compound No. 1, N-(β,β-dichlorovinyl) salicylamide]",growth of fungi in the paints or the cutting oil,[1],controlled
same,MIC,Bacillus subtilis [2]; [16],2.5 µg/mL
same,MIC,Bacillus subtilis [2]; [17],5 µg/mL
same,minimum inhibitory concentration,Staphylococcus aureus [3],2.5 mc g/ml
same,MIC,Staphylococcus aureus [3]; [17],2.5 µg/mL
same,MIC,Chaetomium globosum; [16],5 µg/mL
same,MIC,Chaetomium globosum; [17],10 µg/mL
same,minimum inhibitory concentration,Aspergillus niger [4]; [17],10 mc g/ml
same,MIC,"Aspergillus niger [4]; Aspergillus niger, (1) potato-dextrose agar dilution method",10 µg/mL
same,minimum inhibitory concentration,Pseudomonas fluorescens; [16],40 mc g/ml
same,MIC,"Pseudomonas fluorescens; Pseudomonas fluorescens, (2) waxman's liquid medium dilution method",40 µg/mL
"O=C(NC=C(Cl)Cl)c1ccccc1O [Compound No. 20, sodium salt of N-(β,β-dichlorovinyl) salicylamide]",width of the growth inhibition zone,Bacillus subtilis [5],8 mm
same,width of the growth inhibition zone,Staphylococcus aureus [6],7 mm
same,width of the growth inhibition zone,Penicillium Citrinum [7],7 mm
same,width of the growth inhibition zone,Aspergillus niger [8],6 mm
same,MIC,Bacillus subtilis [2]; [18],5 µg/mL
same,minimum inhibitory concentration,Staphylococcus aureus [3],6 mc g/ml
same,MIC,Staphylococcus aureus [3]; [18],5 µg/mL
same,minimum inhibitory concentration,Aspergillus niger [4]; [16],10 mc g/ml
"CC(=O)Oc1ccccc1C(=O)NC=C(Cl)Cl [Compound No. 6, O-acetyl-N-(2,2-dichlorovinyl) salicylamide]",Degree of growth inhibition,[9]; 0.0125 %,3
same,Degree of growth inhibition,[9]; 0.025 %,3
same,Degree of propagation,green algae,-
same,Degree of propagation,[10],-
same,Degree of propagation,fungi,-
same,pest or weed control at 1000 ppm,[11],96.1%
same,pest or weed control at 500 ppm,[12],83%
same,width of the region of growth-inhibition,Bacillus subtilis [13],9 mm
same,width of the region of growth-inhibition,Penicillium Citrinum [14],7 mm
same,width of the region of growth-inhibition,Staphylococcus oureus,7 mm
same,width of the region of growth-inhibition,Aspergillus niger [15],5 mm
